# Test system: 282377-053-R-J1-PDC complex spheroid viability
# Experiment: Anticancer human tumor 282377-053-R-J1-PDC patient-derived colon adenocarcinoma cell line growth inhibition [POLQ]
# Settings: for IC50: curve of first compound; for viability, T/C: stronger effect = lower value
# Method in brief: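 Three-cell-type spheroids modelling solid tumor plus stroma served as the readout system; POL inhibitors were tested individually and in combination, concentration ranges set by clinical Cmax where known.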
# [1] = second compound 0.0316 µM, first compound 0.0316 µM
# [2] = second compound 0.0316 µM, first compound 0.1 µM
# [3] = second compound 0.0316 µM, first compound 0.316 µM
# [4] = second compound 0.0316 µM, first compound 1 µM
# [5] = second compound 0.0316 µM, first compound 3.16 µM
# [6] = second compound 0.0316 µM, first compound 10 µM
# [7] = second compound 0.1 µM, first compound 0.0316 µM
# [8] = second compound 0.1 µM, first compound 0.1 µM
# [9] = second compound 0.1 µM, first compound 0.316 µM
# [10] = second compound 0.1 µM, first compound 1 µM
# [11] = second compound 0.1 µM, first compound 3.16 µM
# [12] = second compound 0.1 µM, first compound 10 µM
# [13] = second compound 0.316 µM, first compound 0.0316 µM
# [14] = second compound 0.316 µM, first compound 0.1 µM
# [15] = second compound 0.316 µM, first compound 0.316 µM
# [16] = second compound 0.316 µM, first compound 1 µM
# [17] = second compound 0.316 µM, first compound 3.16 µM
# [18] = second compound 0.316 µM, first compound 10 µM
# [19] = second compound 1 µM, first compound 0.0316 µM
# [20] = second compound 1 µM, first compound 0.1 µM
# [21] = second compound 1 µM, first compound 0.316 µM
# [22] = second compound 1 µM, first compound 1 µM
# [23] = second compound 1 µM, first compound 3.16 µM
# [24] = second compound 1 µM, first compound 10 µM
# [25] = second compound 3.16 µM, first compound 0.0316 µM
# [26] = second compound 3.16 µM, first compound 0.1 µM
# [27] = second compound 3.16 µM, first compound 0.316 µM
# [28] = second compound 3.16 µM, first compound 1 µM
# [29] = second compound 3.16 µM, first compound 3.16 µM
# [30] = second compound 3.16 µM, first compound 10 µM
# [31] = second compound 10 µM, first compound 0.0316 µM
# [32] = second compound 10 µM, first compound 0.1 µM
# [33] = second compound 10 µM, first compound 0.316 µM
# [34] = second compound 10 µM, first compound 1 µM
# [35] = second compound 10 µM, first compound 3.16 µM
# [36] = second compound 10 µM, first compound 10 µM
# 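Further: spheroids exposed to compounds for seven days.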
# 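Wherever viability, T/C is given: 100% = DMSO vehicle control viability.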
compound,measurement,setting,value
C=CC(=O)N1CCN(c2nc(=O)n(-c3c(C)ccnc3C(C)C)c3nc(-c4c(O)cccc4F)c(F)cc23)C(C)C1 (stereo not given) + Nc1ccc(C#CCN(C(=O)Cc2ncc(C(F)(F)F)cc2C(F)(F)F)c2ccc(F)cc2)nn1,IC50,second compound 0.0316 µM,> 10 µM
same,IC50,second compound 0.1 µM,> 10 µM
same,IC50,second compound 0.316 µM,> 10 µM
same,IC50,second compound 1 µM,> 10 µM
same,IC50,second compound 3.16 µM,> 10 µM
same,IC50,second compound 10 µM,> 10 µM
same,"viability, T/C",[1],95%
same,"viability, T/C",[2],107%
same,"viability, T/C",[3],94%
same,"viability, T/C",[4],90.8%
same,"viability, T/C",[5],104%
same,"viability, T/C",[6],97.5%
same,"viability, T/C",[7],95.3%
same,"viability, T/C",[8],107%
same,"viability, T/C",[9],91%
same,"viability, T/C",[10],99.7%
same,"viability, T/C",[11],113%
same,"viability, T/C",[12],83.4%
same,"viability, T/C",[13],90.4%
same,"viability, T/C",[14],88.6%
same,"viability, T/C",[15],100%
same,"viability, T/C",[16],98.7%
same,"viability, T/C",[17],101%
same,"viability, T/C",[18],94.9%
same,"viability, T/C",[19],108%
same,"viability, T/C",[20],90.9%
same,"viability, T/C",[21],111%
same,"viability, T/C",[22],91.3%
same,"viability, T/C",[23],97.7%
same,"viability, T/C",[24],86.9%
same,"viability, T/C",[25],106%
same,"viability, T/C",[26],100%
same,"viability, T/C",[27],92.8%
same,"viability, T/C",[28],108%
same,"viability, T/C",[29],91%
same,"viability, T/C",[30],87.9%
same,"viability, T/C",[31],112%
same,"viability, T/C",[32],107%
same,"viability, T/C",[33],114%
same,"viability, T/C",[34],114%
same,"viability, T/C",[35],98.7%
same,"viability, T/C",[36],106%
CC(C)n1c(=O)n(C)c2cnc3cc(F)c(-c4ccc(OCCCN5CCCCC5)nc4)cc3c21 + Nc1ccc(C#CCN(C(=O)Cc2ncc(C(F)(F)F)cc2C(F)(F)F)c2ccc(F)cc2)nn1,IC50,second compound 0.0316 µM,> 10 µM
same,IC50,second compound 0.1 µM,> 10 µM
same,IC50,second compound 0.316 µM,> 10 µM
same,IC50,second compound 1 µM,> 10 µM
same,IC50,second compound 3.16 µM,> 10 µM
same,IC50,second compound 10 µM,> 10 µM
same,"viability, T/C",[1],101%
same,"viability, T/C",[2],105%
same,"viability, T/C",[3],107%
same,"viability, T/C",[4],103%
same,"viability, T/C",[5],110%
same,"viability, T/C",[6],92.7%
same,"viability, T/C",[7],117%
same,"viability, T/C",[8],113%
same,"viability, T/C",[9],108%
same,"viability, T/C",[10],108%
same,"viability, T/C",[11],97.2%
same,"viability, T/C",[12],101%
same,"viability, T/C",[13],111%
same,"viability, T/C",[14],91.5%
same,"viability, T/C",[15],109%
same,"viability, T/C",[16],104%
same,"viability, T/C",[17],106%
same,"viability, T/C",[18],94.5%
same,"viability, T/C",[19],116%
same,"viability, T/C",[20],105%
same,"viability, T/C",[21],103%
same,"viability, T/C",[22],112%
same,"viability, T/C",[23],118%
same,"viability, T/C",[24],102%
same,"viability, T/C",[25],105%
same,"viability, T/C",[26],106%
same,"viability, T/C",[27],103%
same,"viability, T/C",[28],115%
same,"viability, T/C",[29],108%
same,"viability, T/C",[30],111%
same,"viability, T/C",[31],121%
same,"viability, T/C",[32],119%
same,"viability, T/C",[33],114%
same,"viability, T/C",[34],128%
same,"viability, T/C",[35],127%
same,"viability, T/C",[36],122%
CC1COCCN1c1cc(-c2ccnn2C)c2ccnc(-c3ccn[nH]3)c2n1 (stereo not given) + Nc1ccc(C#CCN(C(=O)Cc2ncc(C(F)(F)F)cc2C(F)(F)F)c2ccc(F)cc2)nn1,IC50,second compound 0.0316 µM,2.12 µM
same,IC50,second compound 0.1 µM,0.717 µM
same,IC50,second compound 0.316 µM,0.826 µM
same,IC50,second compound 1 µM,0.821 µM
same,IC50,second compound 3.16 µM,0.997 µM
same,IC50,second compound 10 µM,1.2 µM
same,"viability, T/C",[1],84.6%
same,"viability, T/C",[2],78.7%
same,"viability, T/C",[3],69.4%
same,"viability, T/C",[4],62.3%
same,"viability, T/C",[5],42.6%
same,"viability, T/C",[6],35.1%
same,"viability, T/C",[7],86.2%
same,"viability, T/C",[8],88%
same,"viability, T/C",[9],66.4%
same,"viability, T/C",[10],44.3%
same,"viability, T/C",[11],41.1%
same,"viability, T/C",[12],41.2%
same,"viability, T/C",[13],91%
same,"viability, T/C",[14],81%
same,"viability, T/C",[15],58.8%
same,"viability, T/C",[16],49.4%
same,"viability, T/C",[17],45.8%
same,"viability, T/C",[18],41.5%
same,"viability, T/C",[19],94.5%
same,"viability, T/C",[20],83.2%
same,"viability, T/C",[21],67.3%
same,"viability, T/C",[22],43.8%
same,"viability, T/C",[23],41.5%
same,"viability, T/C",[24],33%
same,"viability, T/C",[25],100%
same,"viability, T/C",[26],78.3%
same,"viability, T/C",[27],67.3%
same,"viability, T/C",[28],49.4%
same,"viability, T/C",[29],37.3%
same,"viability, T/C",[30],44.8%
same,"viability, T/C",[31],103%
same,"viability, T/C",[32],84.2%
same,"viability, T/C",[33],78.5%
same,"viability, T/C",[34],47.9%
same,"viability, T/C",[35],39.5%
same,"viability, T/C",[36],46.3%
CCc1cc2c(N3CCc4c(cc(Cn5ccnc5)cc4-c4cn(C)nc4C(F)(F)F)C3=O)ccnc2c(OC)n1 + Nc1ccc(C#CCN(C(=O)Cc2ncc(C(F)(F)F)cc2C(F)(F)F)c2ccc(F)cc2)nn1,IC50,second compound 0.0316 µM,> 10 µM
same,IC50,second compound 0.1 µM,> 10 µM
same,IC50,second compound 0.316 µM,> 10 µM
same,IC50,second compound 1 µM,> 10 µM
same,IC50,second compound 3.16 µM,> 10 µM
same,IC50,second compound 10 µM,> 10 µM
same,"viability, T/C",[1],92.7%
same,"viability, T/C",[2],98.8%
same,"viability, T/C",[3],102%
same,"viability, T/C",[4],106%
same,"viability, T/C",[5],94.1%
same,"viability, T/C",[6],111%
same,"viability, T/C",[7],75.9%
same,"viability, T/C",[8],73.9%
same,"viability, T/C",[9],72.2%
same,"viability, T/C",[10],77.1%
same,"viability, T/C",[11],107%
same,"viability, T/C",[12],115%
same,"viability, T/C",[13],90.3%
same,"viability, T/C",[14],78.8%
same,"viability, T/C",[15],86.3%
same,"viability, T/C",[16],90.1%
same,"viability, T/C",[17],111%
same,"viability, T/C",[18],87.4%
same,"viability, T/C",[19],104%
same,"viability, T/C",[20],75.7%
same,"viability, T/C",[21],84.1%
same,"viability, T/C",[22],90.5%
same,"viability, T/C",[23],102%
same,"viability, T/C",[24],108%
same,"viability, T/C",[25],103%
same,"viability, T/C",[26],92.7%
same,"viability, T/C",[27],88.8%
same,"viability, T/C",[28],109%
same,"viability, T/C",[29],96.7%
same,"viability, T/C",[30],123%
same,"viability, T/C",[31],95.5%
same,"viability, T/C",[32],106%
same,"viability, T/C",[33],113%
same,"viability, T/C",[34],108%
same,"viability, T/C",[35],138%
same,"viability, T/C",[36],127%
COc1ccc([C@@H](O)c2cc(-c3ncnc4cc(N5CCOCC5)ccc34)c(F)cc2Cl)nn1 + Nc1ccc(C#CCN(C(=O)Cc2ncc(C(F)(F)F)cc2C(F)(F)F)c2ccc(F)cc2)nn1,IC50,second compound 0.0316 µM,> 10 µM
same,IC50,second compound 0.1 µM,> 10 µM
same,IC50,second compound 0.316 µM,> 10 µM
same,IC50,second compound 1 µM,> 10 µM
same,IC50,second compound 3.16 µM,> 10 µM
same,IC50,second compound 10 µM,> 10 µM
same,"viability, T/C",[1],101%
same,"viability, T/C",[2],98.1%
same,"viability, T/C",[3],102%
same,"viability, T/C",[4],93.8%
same,"viability, T/C",[5],88.3%
same,"viability, T/C",[6],71.8%
same,"viability, T/C",[7],94.4%
same,"viability, T/C",[8],108%
same,"viability, T/C",[9],97.3%
same,"viability, T/C",[10],100%
same,"viability, T/C",[11],85.5%
same,"viability, T/C",[12],83.2%
same,"viability, T/C",[13],102%
same,"viability, T/C",[14],86.2%
same,"viability, T/C",[15],111%
same,"viability, T/C",[16],89%
same,"viability, T/C",[17],106%
same,"viability, T/C",[18],86.9%
same,"viability, T/C",[19],106%
same,"viability, T/C",[20],88.5%
same,"viability, T/C",[21],95.5%
same,"viability, T/C",[22],91.9%
same,"viability, T/C",[23],88.6%
same,"viability, T/C",[24],84.1%
same,"viability, T/C",[25],109%
same,"viability, T/C",[26],105%
same,"viability, T/C",[27],92.5%
same,"viability, T/C",[28],100%
same,"viability, T/C",[29],91%
same,"viability, T/C",[30],85.4%
same,"viability, T/C",[31],122%
same,"viability, T/C",[32],111%
same,"viability, T/C",[33],98.7%
same,"viability, T/C",[34],109%
same,"viability, T/C",[35],100%
same,"viability, T/C",[36],90.1%
